The source of these data is US9884854B2, “N-[(pyrimidinylamino)propanyl]-and N[(pyrazinylamino)proppanyl]arylcarboxamides” (Boehringer Ingelheim International GmbH, priority 2016, dated 2018).

Like-named read-outs stand apart in the source and are kept apart here.

The IC50 is the point on the concentration scale where inhibition reaches its midpoint.

Data set [1] deals with T1, human orexin 2 receptor (Homo sapiens, UniProt O43614).
T1 construct: stably expressing the full-length human orexin 2 receptor and the aequorin photoprotein; expressed in transfected cells; host or cells: CHO-K1 (CHO-K1/hOx2), co-expressing aequorin
T1 sequence (O43614 1-444): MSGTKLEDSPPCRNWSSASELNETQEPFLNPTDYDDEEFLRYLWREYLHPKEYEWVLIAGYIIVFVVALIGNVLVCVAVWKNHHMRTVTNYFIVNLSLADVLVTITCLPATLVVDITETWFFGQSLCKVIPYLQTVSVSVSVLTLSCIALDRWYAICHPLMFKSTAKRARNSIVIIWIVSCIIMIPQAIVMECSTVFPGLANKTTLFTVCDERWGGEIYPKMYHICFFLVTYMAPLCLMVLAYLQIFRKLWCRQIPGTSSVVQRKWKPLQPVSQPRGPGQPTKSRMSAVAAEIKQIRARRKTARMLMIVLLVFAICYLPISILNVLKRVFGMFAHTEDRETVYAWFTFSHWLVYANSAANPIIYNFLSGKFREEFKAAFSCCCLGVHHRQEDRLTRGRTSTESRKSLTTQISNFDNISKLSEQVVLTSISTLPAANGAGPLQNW
As to the kind of experiment: Assay B: OX2R IP1 (in vitro OX2R potency). Type of data set: cell-based. Particulars: 0.5 nM Orexin A concentration. The source says:
Activation of the orexin receptors expressed in cell lines results in an increase in intracellular IP3 concentration. IP1, a downstream metabolite of IP3, accumulates in cells following receptor activation and is stable in the presence of LiCl. Using Homogeneous Time-Resolved Fluorescence technology with Lumi4-Tb cryptate (commercially available from Cisbio Bioassay.) and a suitable fluorescence plate reader. […] Chem. Genomics 2009, 3, 22-32. This technique is used to characterize pharmacological modification of the orexin receptors.
B. In Vitro Testing of OX2R Potency: OX2R IP1
IP1 measurements are performed in CHO-K1 cells stably expressing the full-length human orexin 2 receptor and the aequorin photoprotein. Cells are cultivated in Ham's nutrient mixture F12 medium with 10% fetal calf serum, in a 37° C., 95% humidity and 5% CO2 incubator. The CHO-K1/hOx2 cell mass is expanded to larger cell numbers. The cells are obtained as frozen cells in cryo-vials and stored until use at −150° C. The viability of the cells after thawing is >90%. In preparation for the assay, 24 hours before the assay, the cells are thawed at 37° C. and immediately diluted with cell culture medium. After centrifugation, the cell pellet is resuspended in medium and then distributed into the assay plates with a density of 5000 cells/25 μL per well. The plates are incubated for one hour at room temperature to reduce edge effects before they are incubated for 24 hours at 37° C./5% CO2. Compounds are prepared by a 8-point serial dilution in DMSO and a final dilution step into assay buffer (HBSS with 20 mM HEPES, 0.1% BSA and 50 mM LiCl, pH 7.4) to ensure a final DMSO concentration of 1% in the assay. On the day of the assay, cells in the plate are washed twice with 60 μL assay buffer (20 μL buffer remained in the wells after washing), followed by adding 5 μL per well of compounds diluted in assay buffer. After 15 minutes of incubation at room temperature 5 μL per well of Orexin A peptide (final concentration: 0.5 nM) dissolved in assay buffer is added to the assay plate. The assay plate is incubated for 60 minutes at 37° C. Then 5 μl per well of Anti-IP1-Cryptate Tb solution and 5 μl per well of IP1-d2 dilution are added to all well of the plate and the plate is incubated for a further 60 minutes light protected at room temperature. The emission at 615 nm and 665 nm (Excitation wavelength: 320 nm) are measured using an EnVision reader (PerkinElmer). The ratio between the emission at 665 nm and 615 is calculated by the reader.
8-point four parametric non-linear curve fitting and determination of IC50 values and Hill slopes is performed using a regular analysis software e.g. AssayExplorer (Accelrys). In order to establish an agonist concentration independent parameter, Kb values are calculated using the following equation: IC50/((2+(A/EC50)n)^1/n−1) (with A=concentration agonist, EC50=EC50 agonist, n=Hill slope agonist) (see P. Leff, I. G. Dougall, Trends Pharmacol. Sci. 1993, 14(4), 110-112).
Kb values from Assay A (OX1R) and Assay B (OX2R) can then provide a selectivity ratio which is independent of the agonist (Orexin A) concentration.

The nature of data set [2]: Assay C: metabolic stability in human liver microsomes (Human MST). Type of data set: in vitro ADME. Particulars: pooled human liver microsomes, pH 7.6, 1 μM compound, 37° C., read-out: Human MST t1/2. The source says:
Stability in human liver microsomes refers to the susceptibility of compounds to biotransformation in the context of selecting and/or designing drugs with favorable pharmacokinetic properties. The primary site of metabolism for many drugs is the liver. Human liver microsomes contain the cytochrome P450s (CYPs), and thus represent a model system for studying drug metabolization in vitro. Enhanced stability in human liver microsomes is associated with several advantages, including increased bioavailability and longer half-life, which can enable lower and less frequent dosing of patients. Thus, enhanced stability in human liver microsomes is a favorable characteristic for compounds that are to be used for drugs.
C. Assessment of Metabolic Stability in Human Liver Microsomes (Human MST)
The metabolic stability of the compounds according to the invention may be investigated as follows:
The metabolic degradation of the test compound is assayed at 37° C. with pooled human liver microsomes. The final incubation volume of 100 μL per time point contains TRIS buffer pH 7.6 at room temperature (0.1 M), MgCl2 (5 mM), microsomal protein (1 mg/mL) and the test compound at a final concentration of 1 μM. Following a short pre-incubation period at 37° C., the reactions are initiated by addition of beta-nicotinamide adenine dinucleotide phosphate, reduced form (NADPH, 1 mM), and terminated by transferring an aliquot into solvent after different time points. After centrifugation (10000 g, 5 min), an aliquot of the supernatant is assayed by LC-MS/MS for the amount of parent compound. The half-life (t1/2) is determined by the slope of the semi-logarithmic plot of the concentration-time profile.
For orientation: Microsomes from liver hold many membrane-bound enzymes, among them those of drug oxidation.

The test system of data set [3] is human MDR1 P-gp. Put plainly: Assay D: efflux in MDCK cells transfected with the human MDR1 gene. Particulars: dog; MDCK-MDR1 monolayers, pH 7.4, 37° C.; read-out: MDCK efflux ratio (BA/AB). Type of data set: in vitro ADME, canine. As to the method: The MDCK assay provides information on the potential of a compound to pass the blood brain barrier. Permeability measurements across polarized, confluent MDCK-MDR1 cell monolayers grown on permeable filter supports are used as an in vitro absorption model: apparent permeability coefficients (PE) of the compounds across the MDCK-MDR1 cell monolayers are measured (pH 7.4, 37° C.) in apical-to-basal (AB) and basal-to-apical (BA) transport direction. The AB permeability (PEAB) represents drug absorption from the blood into the brain and the BA permeability (PEBA) drug efflux from the brain back into the blood via both, passive permeability as well as active transport mechanisms mediated by efflux and uptake transporters that are expressed on the MDCK-MDR1 cells, predominantly by the overexpressed human MDR1 P-gp. Identical or similar permeabilities in both transport directions indicate passive permeation, vectorial permeability points to additional active transport mechanisms. Higher PEBA than PEAB (PEBA/PEAB>5) indicates the involvement of active efflux mediated by MDR1 P-gp, which might compromises the goal to achieve sufficient brain exposure. Therefore this assay provides valuable support for selection of compounds applicable for further in vivo testing. High permeability not limited by efflux at the blood brain barrier is a favourable characteristic for compounds that are to be used for drugs acting primarily in the CNS
D. Assessment of Efflux in Madin-Darby Canine Kidney (MDCK) Cells Transfected with the Human MDR1 Gene
Apparent permeability coefficients (PE) of the compounds across the MDCK-MDR1 cell monolayers are measured (pH 7.4, 37° C.) in apical-to-basal (AB) and basal-to-apical (BA) transport direction. AB permeability (PEAB) represents drug absorption from the blood into the brain and BA permeability (PEBA) drug efflux from the brain back into the blood via both passive permeability as well as active transport mechanisms mediated by efflux and uptake transporters that are expressed on the MDCK-MDR1 cells, predominantly by the overexpressed human MDR1 P-gp. The compounds are assigned to permeability/absorption classes by comparison of the AB permeabilities with the AB permeabilities of reference compounds with known in vitro permeability and oral absorption in the human. Identical or similar permeabilities in both transport directions indicate passive permeation, vectorial permeability points to additional active transport mechanisms. Higher PEBA than PEAB indicates the involvement of active efflux mediated by MDR1 P-gp. Active transport is concentration-dependently saturable.
MDCK-MDR1 cells (1-2×10e5 cells/1 cm2 area) are seeded on filter inserts (Costar transwell polycarbonate or PET filters, 0.4 μm pore size) and cultured (DMEM) for 7 days. Subsequently, the MDR1 expression is boosted by culturing the cells with 5 mM sodium butyrate in full medium for 2 days. Compounds are dissolved in appropriate solvent (like DMSO, 1-20 mM stock solutions). Stock solutions are diluted with HTP-4 buffer (128.13 mM NaCl, 5.36 mM KCl, 1 mM MgSO4, 1.8 mM CaCl2, 4.17 mM NaHCO3, 1.19 mM Na2HPO4×7H2O, 0.41 mM NaH2PO4×H2O, 15 mM HEPES, 20 mM glucose, 0.25% BSA, pH 7.4) to prepare the transport solutions (0.1-300 μM compound, final DMSO<=0.5%). The transport solution (TL) is applied to the apical or basolateral donor side for measuring A-B or B-A permeability (3 filter replicates), respectively. The receiver side contains the same buffer as the donor side. Samples are collected at the start and end of experiment from the donor and at various time intervals for up to 2 hours also from the receiver side for concentration measurement by HPLC-MS/MS or scintillation counting. Sampled receiver volumes are replaced with fresh receiver solution.

The target in data set [4] is T2, OX1R (Homo sapiens, UniProt O43613).
T2 sequence (O43613 1-425): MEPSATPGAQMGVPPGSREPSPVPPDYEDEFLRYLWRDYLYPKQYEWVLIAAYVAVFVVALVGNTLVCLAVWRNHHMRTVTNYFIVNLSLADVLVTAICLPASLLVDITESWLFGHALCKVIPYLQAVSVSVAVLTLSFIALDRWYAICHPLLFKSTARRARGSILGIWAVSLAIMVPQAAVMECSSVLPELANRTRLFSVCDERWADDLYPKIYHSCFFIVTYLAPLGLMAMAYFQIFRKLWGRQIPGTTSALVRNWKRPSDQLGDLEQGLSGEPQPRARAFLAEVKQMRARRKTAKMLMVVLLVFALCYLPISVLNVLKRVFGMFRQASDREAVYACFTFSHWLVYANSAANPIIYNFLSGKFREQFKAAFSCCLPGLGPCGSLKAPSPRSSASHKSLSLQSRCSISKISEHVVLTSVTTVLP
Particulars: cited from earlier work.

Data set [5] concerns the target T3, OX2R (Homo sapiens, UniProt O43614).
T3 sequence (O43614 1-444): T1 sequence (O43614 1-444)
Particulars: cited from earlier work.

Data set [6] has as its target T2, OX1R. Particulars: cited from earlier work. This is another data set of the same source.
Data set [7] deals with T3, OX2R. Particulars: cited from earlier work. This is another data set of the same source.
[8] abbreviates: as described in WO03/051872 (page 16-18).
Where [9] appears, read: corresponds to pKb described in WO03/051872.

On to `CCN(C(=O)c1cc(F)cc(F)c1-n1nccn1)[C@@H](C)CNc1ncc(C(F)(F)F)cn1` [Example 6], for which the Kb in data set [1] was 53.1 nM. Moreover, the half-life at 1 μM in data set [2] is more than 2 h.
For `Cc1nc(C(=O)N(C)CCNc2ncc(Br)cn2)c(-c2ccc(F)cc2)s1` [Example 6 in WO03/051872], in data set [3], the efflux ratio turned out to be 0.8. Moreover, in data set [4] (setting [8]), the “OX1R pKb” value is reported as 6.4 to 7.4. Also, the “OX1R Kb” value in data set [4] (setting [9]) is 400 to 40 nM. For the same compound, in data set [5] (setting [8]), the “OX2R pKb” value is recorded as less than 6.6 to 7.4. In data set [5] (setting [9]), the “OX2R Kb” value is listed as more than 250 to 40 nM.
`CCN(C(=O)c1cccc(Cl)c1-n1nccn1)[C@@H](C)CNc1ncc(C(F)(F)F)cn1` [Example 3] had a Kb in data set [1] of 6.27 nM. Further, in data set [2], the half-life at 1 μM is 1.4 h.
On to `CC[C@@H](CNc1ncc(C(F)(F)F)cn1)N(C)C(=O)c1nc(C)ccc1-n1nccn1` [Ex 46 in WO2016/034882], for which, in data set [3], the efflux ratio was less than 3. Besides, the results for the “OX2R IC50/OX1R IC50” value in data set [6] (Table 1 of WO2016/034882), in data set [6] (Table 2 of WO2016/034882) and in data set [6] (Table 3 of WO2016/034882) were 390, more than 312 and 3200, respectively. The “OX2R pIC50” value in data set [7] (Table 2 of WO2016/034882) and in data set [7] (Table 3 of WO2016/034882) was less than 5.0 each time. For the same compound, the IC50 was more than 10000 nM in data set [7] (corresponds to pIC50, Table 2 of WO2016/034882) and not below 10000 nM in data set [7] (corresponds to pIC50, Table 3 of WO2016/034882).
